Experimental data reported in US11193136B2, “Cellulose synthase inhibitors and mutant plants” (VIB VZW, priority 2016, dated 2021).

Assays:
[1] = test system: Arabidopsis root elongation zone; assay: Detection of cell wall weakening by PI uptake under gentle pressure on the root; format: in vivo
Method: Because the cellulose synthesized by the CESA1/CESA3 complex is a primary cell wall component, it was expected that C17-treated plants would display a weaker cell wall, which can be visualized by the uptake of propidium iodide (PI) following the application of a gentle pressure on the root.
For the detection of cell wall weakening, 3-day-old seedlings grown on half-strength MS medium were transferred to liquid medium without or with 200 nM C17. The root tips were stained with […] mL^−1 prodium iodide for three min. The stained root tips were put on the Nunc™ Lab-Tek™ Chambered Coverglass (Catalog #155361) without pressure or microscope slide with cover slip that gave a gentle exerting of pressure. By using confocal laser scanning microscopy (LSM710, ZEISS), the brittle cells could be visualized by the uptake of PI.

[2] = test system: Arabidopsis root; assay: Root structure and cell death by propidium iodide staining and confocal microscopy; format: in vivo
Method: (§1) C17 (5-(4-chlorophenyl)-7-(2-methoxyphenyl)-1,5,6,7-tetrahydro-[1,2,4]triazolo[1,5-a]pyrimidine; ChemDiv, Catalogue #: 7693622), a synthetic molecule, was identified from a chemical screen as a ploidy-inducing compound in Arabidopsis protoplasts. To test the effects of C17 on plants, Arabidopsis seeds were plated on half MS medium (Murashige, T. and F. Skoog, 1962) in the presence or absence of 200 nM C17 or its analogues. […] To dissect the C17 inhibitory effects, we employed confocal laser scanning microscopy (LSM710, ZEISS) to observe the root structure. Five-day-old Arabidopsis seedlings grown on vertical plates were transferred to half MS medium containing C17 for further growth. After three-day treatment, the root tips were analysed. Consistent to its growth inhibitory activity, C17 caused cell death at a concentration as little as 25 nM (FIG. 2). At the lowest concentration applied, root cortical cells of the transition zone were affected. This phenotype was aggravated and expanded to other tissues with an increasing dosage of C17 (FIG. 2).
(§2) For studying the growth inhibitory effects of C17 on plants, wild type and C17 resistant mutants were germinated on half MS medium (Murashige and Skoog, 1962) supplemented with or without indicated levels of C17 or its analogs. Seven-day-old seedlings were photographed. […]

[3] = test system: wild type Arabidopsis (Col-0); assay: Growth of Arabidopsis seedlings on half MS medium with C17 or analogues; format: in vivo; conditions: 200 nM
Method: as §1, §2

[4] = test system: ixr1-1, ixr1-2, and ixr2-1 mutants; assay: Sensitivity of isoxaben resistant mutants to C17; format: in vivo, Arabidopsis; conditions: 200 nM C17, 3 days
Source text: To date, several cellulose synthase inhibitors have been reported. In terms of molecular structure, the C17 compound differs completely from any known cellulose inhibitor.
For studying the growth inhibitory effects of C17 on plants, wild type and C17 resistant mutants were germinated on half MS medium (Murashige and Skoog, 1962) supplemented with or without indicated levels of C17 or its analogs. Seven-day-old seedlings were photographed. For observation of the root structure, five-day-old Arabidopsis seedlings were transferred to half MS medium containing different dosages of C17. After a three-day treatment, seedlings were photographed and their root tips were stained with propidium iodide (PI), a fluorescent dye that is excluded from the membranes of healthy cells but penetrates the plasma membrane of dead cells. The stained root tips were visualized by confocal laser scanning microscopy (LSM710, ZEISS). The ixr1-1 (collection number CS6201), ixr1-2 (CS6202) and ixr2-1 (CS6203) mutants were acquired from the ABRC. Five-day-old Arabidopsis seedlings were transferred to half MS medium with or without 200 nM C17. After 3 day, the plants were photographed.

## COc1ccccc1C1CC(c2ccc(Cl)cc2)N=C2N=CNN21 (stereo not drawn) [C17, 5-(4-chlorophenyl)-7-(2-methoxyphenyl)-1,5,6,7-tetrahydro-[1,2,4]triazolo[1,5-a]pyrimidine]
[1]; 200 nM C17, C17-tolerant mutants
  PI uptake and growth inhibition in C17-tolerant mutants: No PI-positive cells and growth inhibition
[1]; 200 nM C17, wild type, PI uptake
  time to cell wall weakening in the root elongation zone: ≤ 2 h
[2]; 100 nM C17, three-day treatment
  cell elongation phenotype: radical rather than polar cell elongation
[2]; five-day-old seedlings, three-day treatment, lowest concentration applied
  concentration causing cell death in the root: 25 nM
[3]
  effect on plant growth: severe growth inhibition accompanied by radial swelling of the root tip
[4]
  sensitivity of isoxaben resistant mutants (ixr1-1, ixr1-2, ixr2-1): still sensitive
